As a reminder, the IC50 is the point on the concentration scale where inhibition reaches its midpoint.

The values below come from US11071735B2, “Treatment of inflammatory conditions and autoimmune diseases with glucose uptake inhibitors” (Kadmon Corporation, LLC, priority 2017, dated 2021).

Holding throughout (format): cell-based
Assay [1] concerns the target T1, GLUT1 (Homo sapiens, UniProt P11166).
T1 construct: endogenous in cells; host or cells: DLD1 WT cancer cells
T1 sequence (P11166 1-492): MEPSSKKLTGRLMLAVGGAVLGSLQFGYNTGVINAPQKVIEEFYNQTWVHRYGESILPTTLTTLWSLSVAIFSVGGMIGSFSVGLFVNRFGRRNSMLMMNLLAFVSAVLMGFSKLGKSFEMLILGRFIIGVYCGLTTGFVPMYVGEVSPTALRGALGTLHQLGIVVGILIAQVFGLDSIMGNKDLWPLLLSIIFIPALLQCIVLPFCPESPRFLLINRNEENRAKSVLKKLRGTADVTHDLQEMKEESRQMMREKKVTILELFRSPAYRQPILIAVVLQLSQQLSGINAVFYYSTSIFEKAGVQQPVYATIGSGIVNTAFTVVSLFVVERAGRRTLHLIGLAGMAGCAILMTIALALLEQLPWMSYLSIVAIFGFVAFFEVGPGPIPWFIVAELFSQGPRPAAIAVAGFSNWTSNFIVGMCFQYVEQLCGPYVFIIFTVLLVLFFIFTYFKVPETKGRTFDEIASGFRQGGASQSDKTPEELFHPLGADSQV
The assay is described as follows: glycolysis assay in DLD1 WT cells (rely on GLUT1). The note with it: DLD1-WT cells; 10 μM oligomycin, one hour. As for the experimental part: (§1) Cells were treated with GLUT inhibitors plus oligomycin and subsequently ATP levels were determined using Cell Titer Glo. […] FIG. 1B reports the IC50 of glycolysis inhibition for selected compounds.
(§2) Accordingly, we have investigated the use of inhibitors of GLUT transporters against activated pro-inflammatory immune cells, including but not limited to activated human CD4+ T cells. In order to understand what GLUT transporters are required to sustain glycolysis in activated T cells, we first utilized the syngeneic cancer cell lines DLD1 WT and DLD GLUT1−/− that rely on GLUT1 and GLUT3 expression, respectively, for glucose transport. Within this system, we have identified small molecules that simultaneously have the property of inhibiting both GLUT1 and GLUT3 mediated glucose transport. In addition, we have confirmed the GLUT1-selective nature of a published small molecule inhibitor of GLUT1 (Chem Med Chem. 2016 Oct. 19; 11(20):2261-2271).
(§3) Determination of glucose uptake/GLUT activity (glycolysis assay): HT1080 cells, DLD1 cells (WT and GLUT1−/−) and human CD4+ T cells were plated in 96-well plates. Cells were exposed to the combination of 10 μM Oligomycin (to block mitochondrial-derived ATP) and the glucose uptake inhibitors disclosed herein for one-hour, after which glycolytically-derived ATP was measured with the Cell Titer-Glo assay kit (Promega). Dose-response curves of the glucose uptake inhibitors disclosed herein were used to determine the IC50 for GLUT activity.

For assay [2], the target named is T2, GLUT3 (Homo sapiens, UniProt P11169).
T2 construct: endogenous in cells; host or cells: DLD1 GLUT1−/− (knock-out) cancer cells
T2 sequence (P11169 1-496): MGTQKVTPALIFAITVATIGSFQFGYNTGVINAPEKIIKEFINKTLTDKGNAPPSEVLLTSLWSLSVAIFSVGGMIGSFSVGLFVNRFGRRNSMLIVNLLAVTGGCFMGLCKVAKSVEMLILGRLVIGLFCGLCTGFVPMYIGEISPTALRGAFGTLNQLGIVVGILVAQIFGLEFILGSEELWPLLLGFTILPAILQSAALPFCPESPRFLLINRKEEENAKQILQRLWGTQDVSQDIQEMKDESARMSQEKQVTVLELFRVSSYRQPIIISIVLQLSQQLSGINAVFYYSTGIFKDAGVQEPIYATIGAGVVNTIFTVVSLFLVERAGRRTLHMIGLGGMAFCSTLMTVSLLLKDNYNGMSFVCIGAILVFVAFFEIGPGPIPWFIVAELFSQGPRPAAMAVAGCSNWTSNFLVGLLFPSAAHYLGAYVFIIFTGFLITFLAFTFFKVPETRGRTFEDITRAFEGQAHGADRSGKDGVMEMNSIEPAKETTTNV
The assay can be described thus: glycolysis assay in DLD1 GLUT1−/− cells (rely on GLUT3). The settings on record: DLD1-KO (GLUT1−/−) cells; 10 μM oligomycin, one hour. As for the experimental part:
as §1, §2, §3

In assay [3] the test system is GLUT. The assay can be described thus: glycolysis assay (oligomycin + Cell Titer-Glo ATP readout) in HT1080 cells. The note with it: 10 μM oligomycin, one hour, glycolytically-derived ATP.
From the text: The combination of inhibitors of both oxidative phosphorylation and glycolysis synergistically suppress cellular ATP levels. Therefore, our assay utilizes the combination of our glucose uptake inhibitors with oligomycin, a well-characterized inhibitor of ATP synthase. Because oligomycin inhibits ATP derived from oxidative phosphorylation, any remaining ATP production is derived from glycolysis. By reading out cellular ATP levels using the Promega
Titer Glo kit, we can assess the extent of glycolysis inhibition by our glucose uptake inhibitors. Using this experimental set-up in HT1080 cancer cells, we determined the IC50 of glycolysis inhibition for the compounds.
as §3

Molecules are shown by their SMILES.

`CCOc1ccc2nc(-c3cccc(OCC(=O)NC4CC4)c3)nc(Nc3ccc(-c4cn[nH]c4)cc3)c2c1` [Ex. 1, 2-(3-(4-((4-(1H-pyrazol-4-yl)phenyl)amino)-6-ethoxyquinazolin-2-yl)phenoxy)-N-cyclopropylacetamide]: the IC50 in assay [1] was found to be 52 nM; in assay [2] it was 129 nM; in assay [3], 242 nM.
For `CCOc1ccc2nc(-c3cccc(OCC(=O)NC(C)(C)C)c3)nc(Nc3ccc(-c4cn[nH]c4)cc3)c2c1` [Ex. 3, 2-(3-(4-((4-(1H-pyrazol-4-yl)phenyl)amino)-6-ethoxyquinazolin-2-yl)phenoxy)-N-(tert-butyl)acetamide], in that order: 59.6 nM, 33.6 nM and 44 nM.
For `CCOc1ccc2nc(-c3cccc(OCC(=O)NC(C)(C)CC)c3)nc(Nc3ccc(-c4cn[nH]c4)cc3)c2c1` [Ex. 4, 2-(3-(4-((4-(1H-pyrazol-4-yl)phenyl)amino)-6-ethoxyquinazolin-2-yl)phenoxy)-N-(tert-pentyl)acetamide], in that order: 86 nM, 148 nM and 50 nM.
The matching figures for `CCOc1ccc2nc(-c3cccc(OCC(=O)NC4CCCC4)c3)nc(Nc3ccc(-c4cn[nH]c4)cc3)c2c1` [Ex. 5, 2-(3-(4-((4-(1H-pyrazol-4-yl)phenyl)amino)-6-ethoxyquinazolin-2-yl)phenoxy)-N-cyclopentylacetamide]: 81 nM, 104 nM and 92 nM.
For the compound `CCOc1ccc2nc(-c3cccc(OCC(=O)NC4CCC4)c3)nc(Nc3ccc(-c4cn[nH]c4)cc3)c2c1` [Ex. 6, 2-(3-(4-((4-(1H-pyrazol-4-yl)phenyl)amino)-6-ethoxyquinazolin-2-yl)phenoxy)-N-cyclobutylacetamide], the results for the IC50 in assay [1], in assay [2] and in assay [3] were 94 nM, 120 nM and 141 nM, respectively.
Turning to `CCOc1ccc2nc(-c3cccc(OCC(=O)NC(CC)CC)c3)nc(Nc3ccc(-c4cn[nH]c4)cc3)c2c1` [Ex. 7, 2-(3-(4-((4-(1H-pyrazol-4-yl)phenyl)amino)-6-ethoxyquinazolin-2-yl)phenoxy)-N-(pentan-3-yl)acetamide], the figures for the IC50 in assay [1], in assay [2] and in assay [3] were 98 nM, 233 nM and 128 nM, respectively.
In the case of `COc1ccc2nc(-c3cccc(OCC(=O)NC(C)C)c3)nc(Nc3ccc(-c4cn[nH]c4)cc3)c2c1` [Ex. 8, 2-(3-(4-((4-(1H-pyrazol-4-yl)phenyl)amino)-6-methoxyquinazolin-2-yl)phenoxy)-N-isopropylacetamide], the IC50 is 261 nM in assay [1], 97.6 nM in assay [2] and 173 nM in assay [3].
For `COc1ccc2nc(-c3cccc(OCC(=O)NC4CC4)c3)nc(Nc3ccc(-c4cn[nH]c4)cc3)c2c1` [Ex. 9, 2-(3-(4-((4-(1H-pyrazol-4-yl)phenyl)amino)-6-methoxyquinazolin-2-yl)phenoxy)-N-cyclopropylacetamide], in that order: 529 nM, 76.1 nM and 367 nM.
`COc1ccc2nc(-c3cccc(OCC(=O)NC4CCCC4)c3)nc(Nc3ccc(-c4cn[nH]c4)cc3)c2c1` [Ex. 10, 2-(3-(4-((4-(1H-pyrazol-4-yl)phenyl)amino)-6-methoxyquinazolin-2-yl)phenoxy)-N-cyclopentylacetamide]: the IC50 stood at 40.5 nM in assay [1], 110 nM in assay [2] and 58.9 nM in assay [3].
As to `COc1ccc2nc(-c3cc(F)cc(OCC(=O)NC(C)C)c3)nc(Nc3ccc(-c4cn[nH]c4)cc3)c2c1` [Ex. 11, 2-(3-(4-((4-(1H-pyrazol-4-yl)phenyl)amino)-6-methoxyquinazolin-2-yl)-5-fluorophenoxy)-N-isopropylacetamide], the IC50 in assay [1] came to 3480 nM; in assay [2] it was 325 nM; in assay [3], 1350 nM.
With `CCCNC(=O)COc1cccc(-c2nc(Nc3ccc(-c4cn[nH]c4)cc3)c3cc(OC)ccc3n2)c1` [Ex. 12, 2-(3-(4-((4-(1H-pyrazol-4-yl)phenyl)amino)-6-methoxyquinazolin-2-yl)phenoxy)-N-propylacetamide], the IC50 was determined as 598 nM in assay [1], 166 nM in assay [2] and 248 nM in assay [3].
Turning to `COc1ccc2nc(-c3cccc(OCC(=O)NC(C)(C)C)c3)nc(Nc3ccc(-c4cn[nH]c4)cc3)c2c1` [Ex. 13, 2-(3-(4-((4-(1H-pyrazol-4-yl)phenyl)amino)-6-methoxyquinazolin-2-yl)phenoxy)-N-(tert-butyl)acetamide], the IC50 in assay [1] was found to be 86.9 nM; in assay [2], 38.9 nM; in assay [3], 54 nM.
For `COc1ccc2nc(-c3cccc(OCC(=O)NCC(C)C)c3)nc(Nc3ccc(-c4cn[nH]c4)cc3)c2c1` [Ex. 14, 2-(3-(4-((4-(1H-pyrazol-4-yl)phenyl)amino)-6-methoxyquinazolin-2-yl)phenoxy)-N-isobutylacetamide], the IC50 in assay [1] is 47 nM; in assay [2] it was 134 nM; in assay [3], 189 nM.
Take `COc1ccc2nc(-c3cccc(OCC(=O)NC4CC(F)(F)C4)c3)nc(Nc3ccc(-c4cn[nH]c4)cc3)c2c1` [Ex. 15, 2-(3-(4-((4-(1H-pyrazol-4-yl)phenyl)amino)-6-methoxyquinazolin-2-yl)phenoxy)-N-(3,3-difluorocyclobutyl)acetamide]: the IC50 came out at 352 nM in assay [1], 86.6 nM in assay [2] and 183 nM in assay [3].
`CCCNC(=O)COc1cccc(-c2nc(Nc3ccc(-c4cn[nH]c4)cc3)c3cc(OCC)ccc3n2)c1` [Ex. 16, 2-(3-(4-((4-(1H-pyrazol-4-yl)phenyl)amino)-6-ethoxyquinazolin-2-yl)phenoxy)-N-propylacetamide]: the IC50 in assay [1] came to 1020 nM; in assay [2], 127 nM; in assay [3], 536 nM.
For `CCOc1ccc2nc(-c3cccc(OCC(=O)NCC(C)C)c3)nc(Nc3ccc(-c4cn[nH]c4)cc3)c2c1` [Ex. 17, 2-(3-(4-((4-(1H-pyrazol-4-yl)phenyl)amino)-6-ethoxyquinazolin-2-yl)phenoxy)-N-isobutylacetamide], the IC50 in assay [1] was 334 nM; in assay [2], 92.2 nM; in assay [3], 166 nM.
Take `CCOc1ccc2nc(-c3cccc(OCC(=O)NC(C)CC)c3)nc(Nc3ccc(-c4cn[nH]c4)cc3)c2c1` (stereo not drawn) [Ex. 18, 2-(3-(4-((4-(1H-pyrazol-4-yl)phenyl)amino)-6-ethoxyquinazolin-2-yl)phenoxy)-N-(sec-butyl)acetamide]: the IC50 is 99.5 nM in assay [1], 43.9 nM in assay [2] and 89 nM in assay [3].
For the compound `CCOc1ccc2nc(-c3cccc(OCC(=O)NC4CC(F)(F)C4)c3)nc(Nc3ccc(-c4cn[nH]c4)cc3)c2c1` [Ex. 19, 2-(3-(4-((4-(1H-pyrazol-4-yl)phenyl)amino)-6-ethoxyquinazolin-2-yl)phenoxy)-N-(3,3-difluorocyclobutyl)acetamide], the IC50 in assay [1] turned out to be 257 nM; in assay [2] it was 66.1 nM; in assay [3], 169 nM.
